# Reference: PubChem BioAssay (NCI)
# Values joined by “and” are separate entries in the source; they are usually repeats but may differ in a detail not shown here. Identical values can stand only once.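 How tested: cells in 96-well plates exposed to compound for 48 hours at five concentrations. Here, GI50 denotes the concentration required for 50% inhibition of growth. TGI is the concentration that stops growth completely.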
# How the values were obtained:
# Experiment in all cases: inhibition of tumour cell growth, NCI panel, 48 h
# 786-0 renal = tested on: 786-0 renal
# A498 renal = tested on: A498 renal
# A549 NSCLC = tested on: A549 NSCLC
# ACHN renal = tested on: ACHN renal
# BT-549 breast = tested on: BT-549 breast
# CAKI-1 renal = tested on: CAKI-1 renal
# CCRF-CEM leukemia = tested on: CCRF-CEM leukemia
# COLO 205 colon = tested on: COLO 205 colon
# DU-145 prostate = tested on: DU-145 prostate
# EKVX NSCLC = tested on: EKVX NSCLC
# HCC-2998 colon = tested on: HCC-2998 colon
# HCT-116 colon = tested on: HCT-116 colon
# HCT-15 colon = tested on: HCT-15 colon
# HL-60(TB) leukemia = tested on: HL-60(TB) leukemia
# HOP-62 NSCLC = tested on: HOP-62 NSCLC
# HOP-92 NSCLC = tested on: HOP-92 NSCLC
# HS 578T breast = tested on: HS 578T breast
# HT29 colon = tested on: HT29 colon
# IGROV1 ovarian = tested on: IGROV1 ovarian
# K-562 leukemia = tested on: K-562 leukemia
# KM12 colon = tested on: KM12 colon
# LOX IMVI melanoma = tested on: LOX IMVI melanoma
# M14 melanoma = tested on: M14 melanoma
# MALME-3M melanoma = tested on: MALME-3M melanoma
# MCF7 breast = tested on: MCF7 breast
# MDA-MB-231 breast = tested on: MDA-MB-231 breast
# MDA-MB-435 = tested on: MDA-MB-435
# MOLT-4 leukemia = tested on: MOLT-4 leukemia
# NCI-H226 lung = tested on: NCI-H226 lung
compound,measurement,setting,value
CS(=O)(=O)CCNCc1ccc(-c2ccc3ncnc(Nc4ccc(OCc5cccc(F)c5)c(Cl)c4)c3c2)o1,GI50,786-0 renal,> 10 µM and 4.43 µM and 5.46 µM
same,TGI,786-0 renal,> 10 µM and > 42.3 µM and 29.2 µM
same,GI50,A498 renal,2.32 µM and 1.98 µM and 3.67 µM
same,TGI,A498 renal,> 10 µM and > 33 µM and 23.8 µM
same,GI50,A549 NSCLC,7.66 µM and 5.68 µM and 5.76 µM
same,TGI,A549 NSCLC,> 10 µM and > 100 µM and 23.5 µM
same,GI50,ACHN renal,0.539 µM and 0.435 µM and 0.323 µM
same,TGI,ACHN renal,> 10 µM and > 100 µM and 54.4 µM
same,GI50,BT-549 breast,> 10 µM and 19.7 µM and 7.43 µM
same,TGI,BT-549 breast,> 10 µM and > 47.5 µM and 44.7 µM
same,TGI,CAKI-1 renal,> 10 µM and > 25 µM and 27.7 µM
same,GI50,CCRF-CEM leukemia,> 10 µM and 2.03 µM and 1.56 µM
same,TGI,CCRF-CEM leukemia,> 10 µM and 5.67 µM and 20.7 µM
same,GI50,COLO 205 colon,> 10 µM and > 78.8 µM and 10.3 µM
same,TGI,COLO 205 colon,> 10 µM and > 100 µM and 33.3 µM
same,GI50,DU-145 prostate,7.11 µM and 2.61 µM and 6.75 µM
same,TGI,DU-145 prostate,> 10 µM and > 100 µM and 34.8 µM
same,GI50,EKVX NSCLC,0.374 µM and 0.0822 µM and 0.107 µM
same,TGI,EKVX NSCLC,> 10 µM and > 100 µM and 41.7 µM
same,GI50,HCC-2998 colon,> 10 µM and 4.1 µM and 8.86 µM
same,TGI,HCC-2998 colon,> 10 µM and 17.8 µM and 24.2 µM
same,GI50,HCT-116 colon,> 10 µM and 7.19 µM and 10.3 µM
same,TGI,HCT-116 colon,> 10 µM and > 100 µM and 23.6 µM
same,GI50,HCT-15 colon,4.97 µM and 3.63 µM and 3.54 µM
same,TGI,HCT-15 colon,> 10 µM and > 100 µM and 27.6 µM
same,TGI,HL-60(TB) leukemia,> 10 µM and > 100 µM and 23.6 µM
same,GI50,HOP-62 NSCLC,> 10 µM and > 62.2 µM and 13 µM
same,TGI,HOP-62 NSCLC,> 10 µM and > 100 µM and 43.9 µM
same,GI50,HOP-92 NSCLC,2.17 µM and 18.6 µM and 2.03 µM
same,TGI,HOP-92 NSCLC,> 10 µM and > 100 µM and 14.4 µM
same,GI50,HS 578T breast,> 10 µM and 8.49 µM and 8.64 µM
same,TGI,HS 578T breast,> 10 µM and > 53.7 µM and 57.6 µM
same,GI50,HT29 colon,7.36 µM and 2.2 µM
same,TGI,HT29 colon,> 10 µM and 15.8 µM
same,GI50,IGROV1 ovarian,2.02 µM and 0.338 µM and 0.387 µM
same,TGI,IGROV1 ovarian,> 10 µM and 26.1 µM
same,GI50,K-562 leukemia,> 10 µM and 1.99 µM and 2.61 µM
same,TGI,K-562 leukemia,> 10 µM and 4.67 µM and 18.3 µM
same,GI50,KM12 colon,8.92 µM and 2.03 µM and 5.25 µM
same,TGI,KM12 colon,> 10 µM and 4 µM and 24.5 µM
same,GI50,LOX IMVI melanoma,8.23 µM and 1.79 µM and 4.19 µM
same,TGI,LOX IMVI melanoma,> 10 µM and 3.35 µM and 10.1 µM
same,GI50,M14 melanoma,8.6 µM and 2.56 µM and 4.22 µM
same,TGI,M14 melanoma,> 10 µM and > 20.2 µM and 12.2 µM
same,GI50,MALME-3M melanoma,> 10 µM and 1.66 µM and 2.67 µM
same,TGI,MALME-3M melanoma,> 10 µM and 3.23 µM and 6.56 µM
same,GI50,MCF7 breast,7.66 µM and 2.18 µM and 2.11 µM
same,TGI,MCF7 breast,> 10 µM and 9.12 µM and 6.69 µM
same,GI50,MDA-MB-231 breast,> 10 µM and 4.14 µM and 9.07 µM
same,TGI,MDA-MB-231 breast,> 10 µM and > 100 µM and 29.5 µM
same,GI50,MDA-MB-435,> 10 µM and 4.38 µM and 7.84 µM
same,TGI,MDA-MB-435,> 10 µM and > 30.8 µM and 34.1 µM
same,GI50,MOLT-4 leukemia,4.54 µM and 2.93 µM and 2.94 µM
same,TGI,MOLT-4 leukemia,> 10 µM and > 100 µM and 21.9 µM
same,GI50,NCI-H226 lung,> 10 µM and > 100 µM and 25 µM
